{
  "source": "patent US12246007B2",
  "about": "“Liquid bendamustine pharmaceutical compositions” (HOSPIRA AUSTRALIA PTY LTD, priority 2018, dated 2025)",
  "assay": "Solubility of bendamustine HCl in organic solvents (T0 assay after overnight rolling and filtration)",
  "type": "physicochemical",
  "description": "An initial study was performed to assess bendamustine HCl solubility and brief stability in various organic solvents. Amounts of approximately 415.4 mg bendamustine HCl API (active pharmaceutical ingredient) were weighed into 4 mL amber glass vials. 2 mL of each indicated test solvent was added to two of each of the vials. One of each set of two vials containing the same solvent was placed on a sample roller at 2-8° C., and the other vial in each set was placed on a sample roller at laboratory temperature overnight. The following day, the solution from each vial was filtered through a Pall, 0.2 μm Fluorodyne II (Hydrophilic modified PVDF) syringe filter into a fresh 4 mL amber glass vial.",
  "note": "Counter-ions that a name gives are not always drawn. Like-named read-outs stand apart in the source and are kept apart here.",
  "data": [
    {"smiles": "Cn1c(CCCC(=O)O)nc2cc(N(CCCl)CCCl)ccc21", "note": "[Bendamustine HCl, 1H-benzimidazole-2-butanoic acid, 5-[bis(2-chloroethyl)amino]-1-methyl, monohydrochloride]", "values": [
      {"measurement": "solubility", "setting": "2 °C, organic solvent or mixture, thermodynamic from solid, 1-methyl-2-pyrrolidinone, 2-8° C., read-out: Solubility", "value": 181, "unit": "mg/mL"},
      {"measurement": "solubility", "setting": "2 °C, organic solvent or mixture, thermodynamic from solid, Absolute Ethanol, 2-8° C., read-out: Solubility", "value": 52.1, "unit": "mg/mL"},
      {"measurement": "solubility", "setting": "2 °C, organic solvent or mixture, thermodynamic from solid, Benzyl alcohol, 2-8° C., read-out: Solubility", "value": 177, "unit": "mg/mL"},
      {"measurement": "solubility", "setting": "2 °C, organic solvent or mixture, thermodynamic from solid, Dimethyl acetamide (EP)-Finar, 2-8° C., read-out: Solubility", "value": 180, "unit": "mg/mL"},
      {"measurement": "solubility", "setting": "2 °C, organic solvent or mixture, thermodynamic from solid, Dimethyl acetamide (EP)-Panreac, 2-8° C., read-out: Solubility", "value": 182, "unit": "mg/mL"},
      {"measurement": "solubility", "setting": "2 °C, organic solvent or mixture, thermodynamic from solid, Dimethyl acetamide (high purity)-Finar, 2-8° C., read-out: Solubility", "value": 178, "unit": "mg/mL"},
      {"measurement": "solubility", "setting": "2 °C, organic solvent or mixture, thermodynamic from solid, Dimethyl sulfoxide, 2-8° C., read-out: Solubility", "value": 182, "unit": "mg/mL"},
      {"measurement": "solubility", "setting": "2 °C, organic solvent or mixture, thermodynamic from solid, PEG 300, 2-8° C., read-out: Solubility", "value": 60.2, "unit": "mg/mL"},
      {"measurement": "solubility", "setting": "2 °C, organic solvent or mixture, thermodynamic from solid, PEG 400, 2-8° C., read-out: Solubility", "value": 32.8, "unit": "mg/mL"},
      {"measurement": "solubility", "setting": "2 °C, organic solvent or mixture, thermodynamic from solid, Propylene glycol (USP)-Croda, 2-8° C., read-out: Solubility", "value": 154, "unit": "mg/mL"},
      {"measurement": "solubility", "setting": "2 °C, organic solvent or mixture, thermodynamic from solid, Propylene glycol (USP)-Dow, 2-8° C., read-out: Solubility", "value": 154, "unit": "mg/mL"},
      {"measurement": "solubility", "setting": "2 °C, organic solvent or mixture, thermodynamic from solid, Propylene glycol (USP)-Merck, 2-8° C., read-out: Solubility", "value": 159, "unit": "mg/mL"},
      {"measurement": "solubility", "setting": "2 °C, organic solvent or mixture, thermodynamic from solid, Propylene glycol, 2-8° C., read-out: bendamustine HCl solubility", "value": "~155", "unit": "mg/mL"},
      {"measurement": "solubility", "setting": "Isopropyl alcohol, 2-8° C.", "value": 4.5, "unit": "mg/mL"},
      {"measurement": "solubility", "setting": "PEG 300, organic solvent or mixture, thermodynamic from solid, read-out: bendamustine HCl solubility", "value": "~60", "unit": "mg/mL"},
      {"measurement": "solubility", "setting": "PEG 400, organic solvent or mixture, thermodynamic from solid, read-out: bendamustine HCl solubility", "value": "~30", "unit": "mg/mL"},
      {"measurement": "solubility", "setting": "Propylene glycol (USP)-Croda, 23° C.", "value": 170.3, "unit": "mg/mL"},
      {"measurement": "solubility", "setting": "ethanol, organic solvent or mixture, thermodynamic from solid, read-out: bendamustine HCl solubility", "value": "50 to 60", "unit": "mg/mL"},
      {"measurement": "solubility", "setting": "isopropyl alcohol, organic solvent or mixture, thermodynamic from solid, read-out: bendamustine HCl solubility", "value": "~5", "unit": "mg/mL"},
      {"measurement": "solubility", "setting": "organic solvent or mixture, thermodynamic from solid, 1-methyl-2-pyrrolidinone, 23° C., read-out: Solubility", "value": 180, "unit": "mg/mL"},
      {"measurement": "solubility", "setting": "organic solvent or mixture, thermodynamic from solid, 1-methyl-2-pyrrolidinone, both temperatures tested, API completely dissolved, read-out: bendamustine HCl solubility", "value": "> 180", "unit": "mg/mL"},
      {"measurement": "solubility", "setting": "organic solvent or mixture, thermodynamic from solid, Absolute Ethanol, 23° C., read-out: Solubility", "value": 61.1, "unit": "mg/mL"},
      {"measurement": "solubility", "setting": "organic solvent or mixture, thermodynamic from solid, Benzyl alcohol, 23° C., read-out: Solubility", "value": 174, "unit": "mg/mL"},
      {"measurement": "solubility", "setting": "organic solvent or mixture, thermodynamic from solid, Benzyl alcohol, both temperatures tested, API completely dissolved, read-out: bendamustine HCl solubility", "value": "> 180", "unit": "mg/mL"},
      {"measurement": "solubility", "setting": "organic solvent or mixture, thermodynamic from solid, Dimethyl acetamide (EP)-Finar, 23° C., read-out: Solubility", "value": 174, "unit": "mg/mL"},
      {"measurement": "solubility", "setting": "organic solvent or mixture, thermodynamic from solid, Dimethyl acetamide (EP)-Panreac, 23° C., read-out: Solubility", "value": 180, "unit": "mg/mL"},
      {"measurement": "solubility", "setting": "organic solvent or mixture, thermodynamic from solid, Dimethyl acetamide (high purity)-Finar, 23° C., read-out: Solubility", "value": 179, "unit": "mg/mL"},
      {"measurement": "solubility", "setting": "organic solvent or mixture, thermodynamic from solid, Dimethyl sulfoxide, 23° C., read-out: Solubility", "value": 181, "unit": "mg/mL"},
      {"measurement": "solubility", "setting": "organic solvent or mixture, thermodynamic from solid, Isopropyl alcohol, 23° C., read-out: Solubility", "value": 6.7, "unit": "mg/mL"},
      {"measurement": "solubility", "setting": "organic solvent or mixture, thermodynamic from solid, PEG 300, 23° C., read-out: Solubility", "value": 64.5, "unit": "mg/mL"},
      {"measurement": "solubility", "setting": "organic solvent or mixture, thermodynamic from solid, PEG 400, 23° C., read-out: Solubility", "value": 34.4, "unit": "mg/mL"},
      {"measurement": "solubility", "setting": "organic solvent or mixture, thermodynamic from solid, Propylene glycol (USP)-Dow, 23° C., read-out: Solubility", "value": 166, "unit": "mg/mL"},
      {"measurement": "solubility", "setting": "organic solvent or mixture, thermodynamic from solid, Propylene glycol (USP)-Merck, 23° C., read-out: Solubility", "value": 172, "unit": "mg/mL"},
      {"measurement": "solubility", "setting": "organic solvent or mixture, thermodynamic from solid, Propylene glycol, 23° C., read-out: bendamustine HCl solubility", "value": "~170", "unit": "mg/mL"},
      {"measurement": "solubility", "setting": "organic solvent or mixture, thermodynamic from solid, dimethyl acetamide, both temperatures tested, API completely dissolved, read-out: bendamustine HCl solubility", "value": "> 180", "unit": "mg/mL"},
      {"measurement": "solubility", "setting": "organic solvent or mixture, thermodynamic from solid, dimethyl sulfoxide, both temperatures tested, API completely dissolved, read-out: bendamustine HCl solubility", "value": "> 180", "unit": "mg/mL"}
    ]}
  ]
}
